Assay results published in PubChem BioAssay AID1259407 (Chemical Carcinogenesis Research Information System (CCRIS), 2018).
Calls of active or inactive are those of the source. The rule behind the calls is not given here.

Tested on: CCRIS mutagenicity, Ames/micronucleus/aberration tests
Assay: CCRIS mutagenicity studies
[1] = Test System: AMES SALMONELLA TYPHIMURIUM, Strain/Indicator: TA98, Metabolic Activation: NONE, Method: STANDARD PLATE
[2] = Test System: AMES SALMONELLA TYPHIMURIUM, Strain/Indicator: TA98, Metabolic Activation: RAT, LIVER, S-9, AROCLOR 1254, Method: STANDARD PLATE
[3] = Test System: AMES SALMONELLA TYPHIMURIUM, Strain/Indicator: TA100, Metabolic Activation: NONE, Method: STANDARD PLATE
[4] = Test System: AMES SALMONELLA TYPHIMURIUM, Strain/Indicator: TA100, Metabolic Activation: RAT, LIVER, S-9, AROCLOR 1254, Method: STANDARD PLATE
[5] = Test System: MOUSE LYMPHOMA, Strain/Indicator: L5178Y (TK+/TK-), Metabolic Activation: NONE, Method: SUSPENSION/PLATE
[6] = Test System: MOUSE LYMPHOMA, Strain/Indicator: L5178Y (TK+/TK-), Metabolic Activation: RAT, LIVER, S-9, AROCLOR 1254, Method: SUSPENSION/PLATE
[7] = Test System: AMES SALMONELLA TYPHIMURIUM, Strain/Indicator: TA98, Metabolic Activation: NONE, Method: PREINCUBATION
[8] = Test System: AMES SALMONELLA TYPHIMURIUM, Strain/Indicator: TA100, Metabolic Activation: NONE, Method: PREINCUBATION
[9] = Test System: AMES SALMONELLA TYPHIMURIUM, Strain/Indicator: TA1535, Metabolic Activation: NONE, Method: PREINCUBATION

Measured: mutagenic call

CN(C)C=O
inactive: Test System: AMES SALMONELLA TYPHIMURIUM, Strain/Indicator: TA97, Metabolic Activation: NONE, Method: STANDARD PLATE inactive; negative | Test System: AMES SALMONELLA TYPHIMURIUM, Strain/Indicator: TA97, Metabolic Activation: RAT, LIVER, S-9, AROCLOR 1254, Method: STANDARD PLATE inactive; negative | [1] inactive; negative | [2] inactive; negative | [3] inactive; negative | [4] inactive; negative | Test System: Ames Salmonella typhimurium, Strain/Indicator: TA98, Metabolic Activation: None, Method: Gas exposure method inactive; negative | Test System: Ames Salmonella typhimurium, Strain/Indicator: TA98, Metabolic Activation: Rat, Liver, S9, Sodium phenobarbital and 5,6-benzoflavone (10%), Method: Gas exposure method inactive; negative | Test System: Ames Salmonella typhimurium, Strain/Indicator: TA100, Metabolic Activation: None, Method: Gas exposure method inactive; negative | Test System: Ames Salmonella typhimurium, Strain/Indicator: TA100, Metabolic Activation: Rat, Liver, S9, Sodium phenobarbital and 5,6-benzoflavone (10%), Method: Gas exposure method inactive; negative | Test System: Ames Salmonella typhimurium, Strain/Indicator: TA1535, Metabolic Activation: None, Method: Gas exposure method inactive; negative | Test System: Ames Salmonella typhimurium, Strain/Indicator: TA1535, Metabolic Activation: Rat, Liver, S9, Sodium phenobarbital and 5,6-benzoflavone (10%), Method: Gas exposure method inactive; negative | Test System: Ames Salmonella typhimurium, Strain/Indicator: TA1537, Metabolic Activation: None, Method: Gas exposure method inactive; negative | Test System: Ames Salmonella typhimurium, Strain/Indicator: TA1537, Metabolic Activation: Rat, Liver, S9, Sodium phenobarbital and 5,6-benzoflavone (10%), Method: Gas exposure method inactive; negative | Test System: E. coli, Strain/Indicator: WP2uvrA/pKM101, Metabolic Activation: None, Method: Gas exposure method inactive; negative | Test System: E. coli, Strain/Indicator: WP2uvrA/pKM101, Metabolic Activation: Rat, Liver, S9, Sodium phenobarbital and 5,6-benzoflavone (10%), Method: Gas exposure method inactive; negative | [5] inactive; negative | [6] inactive; negative | Test System: MOUSE LYMPHOMA, Strain/Indicator: L5178Y (TK+/TK-), Metabolic Activation: RAT, LIVER, S-9, Method: SUSPENSION/PLATE inactive; negative

CNC(=O)N(C)c1nc2ccccc2s1
inactive: [1] inactive; negative | [2] inactive; negative | [3] inactive; negative | [4] inactive; negative

c1ccc(OP(Oc2ccccc2)Oc2ccccc2)cc1
inactive: Test System: AMES SALMONELLA TYPHIMURIUM, Strain/Indicator: TA98, Metabolic Activation: HAMSTER, LIVER, S-9, AROCLOR 1254 (10%), Method: PREINCUBATION inactive; negative | [7] inactive; negative | Test System: AMES SALMONELLA TYPHIMURIUM, Strain/Indicator: TA98, Metabolic Activation: RAT, LIVER, S-9, AROCLOR 1254 (10%), Method: PREINCUBATION inactive; negative | Test System: AMES SALMONELLA TYPHIMURIUM, Strain/Indicator: TA100, Metabolic Activation: HAMSTER, LIVER, S-9, AROCLOR 1254 (10%), Method: PREINCUBATION inactive; negative | [8] inactive; negative | Test System: AMES SALMONELLA TYPHIMURIUM, Strain/Indicator: TA100, Metabolic Activation: RAT, LIVER, S-9, AROCLOR 1254 (10%), Method: PREINCUBATION inactive; negative | Test System: AMES SALMONELLA TYPHIMURIUM, Strain/Indicator: TA1535, Metabolic Activation: HAMSTER, LIVER, S-9, AROCLOR 1254 (10%), Method: PREINCUBATION inactive; negative | [9] inactive; negative | Test System: AMES SALMONELLA TYPHIMURIUM, Strain/Indicator: TA1535, Metabolic Activation: RAT, LIVER, S-9, AROCLOR 1254 (10%), Method: PREINCUBATION inactive; negative | Test System: AMES SALMONELLA TYPHIMURIUM, Strain/Indicator: TA1537, Metabolic Activation: HAMSTER, LIVER, S-9, AROCLOR 1254 (10%), Method: PREINCUBATION inactive; negative | Test System: AMES SALMONELLA TYPHIMURIUM, Strain/Indicator: TA1537, Metabolic Activation: NONE, Method: PREINCUBATION inactive; negative | Test System: AMES SALMONELLA TYPHIMURIUM, Strain/Indicator: TA1537, Metabolic Activation: RAT, LIVER, S-9, AROCLOR 1254 (10%), Method: PREINCUBATION inactive; negative

CC(C)c1cc(N)cc([N+](=O)[O-])c1N
inactive: [1] inactive; negative | [2] inactive; negative | [3] inactive; negative | [4] inactive; negative | Test System: AMES SALMONELLA TYPHIMURIUM, Strain/Indicator: TA1538, Metabolic Activation: NONE, Method: STANDARD PLATE inactive; negative | Test System: AMES SALMONELLA TYPHIMURIUM, Strain/Indicator: TA1538, Metabolic Activation: RAT, LIVER, S-9, AROCLOR 1254, Method: STANDARD PLATE inactive; negative

Cn1c2ccccc2c2cc([N+](=O)[O-])ccc21
active: [1] active; positive | Test System: AMES SALMONELLA TYPHIMURIUM, Strain/Indicator: TA98, Metabolic Activation: RAT LIVER S-9, AROCLOR 1254, Method: STANDARD PLATE active; positive | [3] active; positive | Test System: AMES SALMONELLA TYPHIMURIUM, Strain/Indicator: TA100, Metabolic Activation: RAT LIVER S-9, AROCLOR 1254, Method: STANDARD PLATE active; positive

CCO
inactive: Test System: AMES SALMONELLA TYPHIMURIUM, Strain/Indicator: TA97, Metabolic Activation: HAMSTER, LIVER, S-9, AROCLOR 1254 (10%), Method: PREINCUBATION inactive; negative | Test System: AMES SALMONELLA TYPHIMURIUM, Strain/Indicator: TA97, Metabolic Activation: HAMSTER, LIVER, S-9, AROCLOR 1254 (30%), Method: PREINCUBATION inactive; negative | Test System: AMES SALMONELLA TYPHIMURIUM, Strain/Indicator: TA97, Metabolic Activation: NONE, Method: PREINCUBATION inactive; negative | Test System: AMES SALMONELLA TYPHIMURIUM, Strain/Indicator: TA97, Metabolic Activation: RAT, LIVER, S-9, AROCLOR 1254 (10%), Method: PREINCUBATION inactive; negative | Test System: AMES SALMONELLA TYPHIMURIUM, Strain/Indicator: TA97, Metabolic Activation: RAT, LIVER, S-9, AROCLOR 1254 (30%), Method: PREINCUBATION inactive; negative | Test System: AMES SALMONELLA TYPHIMURIUM, Strain/Indicator: TA98, Metabolic Activation: HAMSTER, LIVER, S-9, AROCLOR 1254 (10 OR 30%), Method: PREINCUBATION inactive; negative | [7] inactive; negative | Test System: AMES SALMONELLA TYPHIMURIUM, Strain/Indicator: TA98, Metabolic Activation: RAT, LIVER, S-9, AROCLOR 1254 (10 OR 30%), Method: PREINCUBATION inactive; negative | Test System: AMES SALMONELLA TYPHIMURIUM, Strain/Indicator: TA100, Metabolic Activation: HAMSTER, LIVER, S-9, AROCLOR 1254 (10 OR 30%), Method: PREINCUBATION inactive; negative | [8] inactive; negative | Test System: AMES SALMONELLA TYPHIMURIUM, Strain/Indicator: TA100, Metabolic Activation: RAT, LIVER, S-9, AROCLOR 1254 (10 OR 30%), Method: PREINCUBATION inactive; negative | Test System: AMES SALMONELLA TYPHIMURIUM, Strain/Indicator: TA104, Metabolic Activation: HAMSTER, LIVER, S-9, AROCLOR 1254 (10 OR 30%), Method: PREINCUBATION inactive; negative | Test System: AMES SALMONELLA TYPHIMURIUM, Strain/Indicator: TA104, Metabolic Activation: NONE, Method: PREINCUBATION inactive; negative | Test System: AMES SALMONELLA TYPHIMURIUM, Strain/Indicator: TA104, Metabolic Activation: RAT, LIVER, S-9, AROCLOR 1254 (10 OR 30%), Method: PREINCUBATION inactive; negative | Test System: AMES SALMONELLA TYPHIMURIUM, Strain/Indicator: TA1535, Metabolic Activation: HAMSTER, LIVER, S-9, AROCLOR 1254 (10 OR 30%), Method: PREINCUBATION inactive; negative | [9] inactive; negative | Test System: AMES SALMONELLA TYPHIMURIUM, Strain/Indicator: TA1535, Metabolic Activation: RAT, LIVER, S-9, AROCLOR 1254 (10 OR 30%), Method: PREINCUBATION inactive; negative | [5] inactive; negative | [6] inactive; negative
